This is an account of results in ChEMBL document CHEMBL3792289, “Design, synthesis and biological evaluation of bisabolangelone oxime derivatives as potassium-competitive acid blockers (P-CABs)” (Bioorg Med Chem Lett, 2016).

A short description of the first assay: Inhibition of pig gastric H+/K+-ATPase in stomach ion leaky membrane vesicle assessed as reduction in monophosphate production after 30 mins by microplate reader analysis in presence of valinomycin. The format is cell membranes, Sus scrofa.
`CC(C)C/C=C1\O[C@H]2C[C@@H](C)C/C(=N\O)[C@H]2[C@@]1(C)O`: the pIC50 came to 5.54. On the same count and under the same terms, to `CCOC(=O)CO/N=C1\C[C@H](C)C[C@@H]2O/C(=C\CC(C)C)[C@](C)(O)[C@H]12` belongs 6.07. On the same count and under the same terms, to `CC(C)C/C=C1\O[C@H]2C[C@@H](C)C/C(=N\OCc3ccccc3)[C@H]2[C@@]1(C)O` belongs 6.25. On the same count and under the same terms, to `C#CCO/N=C1\C[C@H](C)C[C@@H]2O/C(=C\CC(C)C)[C@](C)(O)[C@H]12` belongs 6.36; to `CC(C)C/C=C1\O[C@H]2C[C@@H](C)C/C(=N\OC(=O)Nc3ccccc3)[C@H]2[C@@]1(C)O`, 6. As for `CCCCO/N=C1\C[C@H](C)C[C@@H]2O/C(=C\CC(C)C)[C@](C)(O)[C@H]12`, the negative logarithm of the IC50 (pIC50) stood at 5.94. Regarding `CC(C)CCC1O[C@H]2C[C@@H](C)C/C(=N\O)[C@H]2[C@@]1(C)O` (some centres undefined), the negative-log IC50 (pIC50) was 5.3. Regarding `Cc1nc(Nc2ccc(F)cc2)nc(N2CCc3ccccc3C2C)c1C` (centres undefined) [REVAPRAZAN], the IC50 was determined as 0.95 µM.

The next assay in a line: Inhibition of gastric H+/K+-ATPase in Kunming mouse stomach parietal cells. The format is tissue-based.
With `CC(C)C/C=C1\O[C@H]2C[C@@H](C)CC(=O)[C@H]2[C@@]1(C)O`, the IC50 was determined as 23.2 µM.

A word on the pIC50: it is the IC50 on a negative log10 scale, so that one unit is a factor of ten. For orientation: IC50 means the midpoint of a concentration-inhibition curve.
